Data published in patent US20120207704A1 (priority 2011, published 2012).

System: DU-145 cells
Assay type: cell-based, human

In the case of `C=C1[C@@H](C)[C@H]2[C@H](Cc3ccccc3)NC(=O)[C@]23[C@H](OC(C)=O)/C=C/[C@@](C)(O)C(=O)[C@@H](C)C/C=C/[C@H]3[C@@H]1O` [Cytochalasin-D], the “Effect on cell migration” value is reported as “did not migrate”, the “Relative Wound Density at 24 Hours, Mean” value is reported as 3.3 ± 0.2 and the “Relative Wound Density at 24 Hours, Percent Relative to Media” value is reported as 4%.
